Data published in patent publication US10344019B2 (priority 2010, dated 2019).
Where two headings read alike, the source gives them in different places.

Assays:
Assay in all cases: microbe, parasite or virus in culture
Format in all cases: cell-based
[1] = test system: HCV 3a RLuc cells (NS5A chimeric genotype 1b Con1 replicon with consensus genotype 3a NS5A gene); settings: Hepatitis C virus
Method in brief: (§1)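 Replicon cells stably carrying the listed RLuc-encoding dicistronic replicons were seeded and treated with DMSO serial dilutions of compound (10 mM stocks) diluted into culture medium. After 72 h, cells were lysed and Renilla luciferase activity measured. EC50 was derived by non-linear regression.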

[2] = test system: HCV 1b RLuc cells (dicistronic genotype 1b Con1 replicon, RLuc reporter); settings: Hepatitis C virus, read-out: 1b (nM)
Method in brief: (§2)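 Renilla luciferase HCV replicon cells: dicistronic 1b Con1, 1a H77 or 2a JFH-1 replicons, or a JFH-1 chimera carrying J6 NS5A (M31 present). Compound in DMSO serial dilutions, 72 h incubation, then lysis and luciferase read. EC50 by non-linear regression.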

[3] = test system: HCV 1a RLuc cells (dicistronic genotype 1a H77 replicon, RLuc reporter); settings: Hepatitis C virus, read-out: 1a
Method in brief: as §2

[4] = test system: HCV 2a JFH-1 Rluc cells (dicistronic genotype 2a JFH-1 replicon, RLuc reporter); settings: Hepatitis C virus, genotype 2a JFH-1 replicon, read-out: 2a JFH
Method in brief: as §2

[5] = test system: HCV 4a Rluc cells (NS5A chimeric genotype 1b Con1 replicon with genotype 4a NS5A gene); settings: Hepatitis C virus, read-out: 4a
Method in brief: as §1

[6] = read-out: 3a, Table 2, genotype 3a NS5A chimeric replicon
[7] = 72 h, Table 2, genotype 1a H77 replicon, 72 hours
[8] = read-out: 3a, genotype 3a NS5A chimeric 1b Con1 replicon
[9] = genotype 1a H77 replicon, RLuc reporter
[10] = read-out: 3a, genotype 3a replicon

SMILES	EC50 [1, 6] [pM]	EC50 ([2]; 72 h) [nM]	EC50 [3, 7] [pM]	EC50 ([4]; 72 h, Table 2, 72 hours) [pM]	EC50 [5] [pM]	EC50 [1, 8] [pM]	EC50 [2] [nM]	EC50 [3, 9] [pM]	EC50 ([4]; RLuc reporter) [pM]	EC50 [1, 10] [pM]	EC50 ([3]; genotype 1a replicon) [pM]	EC50 [4] [pM]
COC(=O)N[C@H](C(=O)N1CCC[C@H]1c1ncc(-c2ccc3c(c2)C(F)(F)c2cc(-c4ccc5nc([C@@H]6CC7(CN6C(=O)[C@H](NC(=O)OC)c6ccccc6)OCCO7)[nH]c5c4)ccc2-3)[nH]1)C1CCOCC1 [Example 58]	1000 to 4990	0.017	1 to 999	1 to 999	1 to 990							
COC(=O)N[C@H](C(=O)N1[C@@H]2CC[C@@H](C2)[C@H]1c1nc2ccc3cc(C#Cc4ccc(-c5cnc([C@@H]6CCCN6C(=O)[C@H](NC(=O)OC)c6ccccc6)[nH]5)cc4)ccc3c2[nH]1)C1CCOCC1 [Example 283]					1 to 990	1 to 990	0.007	1 to 999	1 to 999			
COC(=O)N[C@H](C(=O)N1CCC[C@H]1c1ncc(-c2cc3c4c(c2)OCc2cc(-c5cnc([C@@H]6CCCN6C(=O)[C@@H](NC(=O)OC)[C@@H](C)OC)[nH]5)cc(c2-4)OC3)[nH]1)C(C)C [Example 313]					1 to 990		0.079			1 to 990	1 to 999	1 to 999
COC(=O)N[C@H](C(=O)N1CCC[C@H]1c1ncc(-c2ccc3c(c2)sc2cc(-c4cnc([C@@H]5CCCN5C(=O)[C@H](NC(=O)OC)c5ccccc5)[nH]4)ccc23)[nH]1)C(C)C [Example 250]					1 to 990	1 to 990	0.004	1 to 999	1 to 999			
COC(=O)N[C@H](C(=O)N1CCC[C@H]1c1nc2ccc(-c3ccc4c(c3)CCc3cc(-c5cnc([C@@H]6CCCN6C(=O)C(c6ccccc6)N(C)C)[nH]5)ccc3-4)cc2[nH]1)C(C)C (stereo partly drawn) [Example 181]					1 to 990	1 to 990	0.01	1 to 999	1 to 999			
COC(=O)N[C@H](C(=O)N1CCC[C@H]1c1ncc(-c2ccc3cc(-c4ccc(-c5cnc([C@@H]6CCCN6C(=O)OC(C)(C)C)[nH]5)cc4)ccc3c2)[nH]1)C(C)C [Example 247]					1 to 990	> 5000	0.758	1000 to 44000	> 44000			
COC(=O)N[C@H](C(=O)N1CCC[C@H]1c1nc2ccc3cc(-c4csc5cc(-c6cnc([C@@H]7CCCN7C(=O)[C@H](NC(=O)OC)c7ccccc7)[nH]6)ccc45)ccc3c2[nH]1)C(C)C [Example 285]					1 to 990	1 to 990	0.006	1 to 999	1 to 999			
COC(=O)N[C@H](C(=O)N1CCC[C@H]1c1ncc(-c2ccc3cc(-c4ccc(-c5cnc([C@@H]6CC(O)CN6C(=O)[C@H](NC(=O)OC)c6ccccc6)[nH]5)cc4)ccc3c2)[nH]1)C(C)C (stereo partly drawn) [Example 256]					1 to 990	1 to 990	0.015	1 to 999	1 to 999			
COC(=O)N[C@H](C(=O)N1CCC[C@H]1c1ncc(-c2ccc3cc(-c4ccc(-c5cnc([C@@H]6CC7(CN6C(=O)[C@H](NC(=O)OC)c6ccccc6)OCCO7)[nH]5)cc4)ccc3c2)[nH]1)C1CCOCC1 [Example 47]	1000 to 4990	0.037	1 to 999	1 to 999	1 to 990							
COC(=O)N[C@H](C(=O)N1CCC[C@H]1c1ncc(-c2cc3c4c(c2)OCc2cc(-c5cnc([C@@H]6CCCN6C(=O)[C@@H](NC(=O)OC)C6CCCC6)[nH]5)cc(c2-4)OC3)[nH]1)C1CCCC1 [Example 377]					1 to 990		0.022			1 to 990	1 to 999	1 to 999
COC(=O)N[C@H](C(=O)N1CCC[C@H]1c1ncc(-c2ccc3c(c2)C(F)(F)c2cc(-c4ccc5nc([C@@H]6CCCN6C(=O)[C@H](NC(=O)OC)c6ccccc6)[nH]c5c4)ccc2-3)[nH]1)C(C)C [Example 258]					1 to 990	1 to 990	0.005	1 to 999	1 to 999			
COC(=O)N[C@H](C(=O)N1CCC[C@H]1c1ncc(-c2ccc3c(c2)C(F)(F)c2cc(-c4ccc5nc([C@@H]6[C@H]7CC[C@H](C7)N6C(=O)[C@H](NC(=O)OC)c6ccccc6)[nH]c5c4)ccc2-3)[nH]1)C(C)C [Example 40]	1000 to 4990	0.005	1 to 999	1 to 999	1 to 990							
COC(=O)N[C@H](C(=O)N1CCC[C@H]1c1ncc(-c2ccc3cc(-c4ccc(-c5cnc([C@@H]6CC7(CC7)CN6C(=O)[C@H](NC(=O)OC)c6ccccc6)[nH]5)cc4)ccc3c2)[nH]1)C(C)C [Example 235]					1 to 990	1000 to 4990	0.004	1 to 999	1 to 999			
COC(=O)N[C@H](C(=O)N1CCC[C@H]1c1ncc(-c2ccc3cc(-c4ccc(-c5cnc([C@@H]6CCCN6C(=O)[C@H](NC(=O)CN(C)C)c6ccccc6)[nH]5)cc4)ccc3c2)[nH]1)C(C)C [Example 237]					1 to 990	1 to 990	0.023	1 to 999	1 to 999			
COC(=O)N[C@H](C(=O)N1CCC[C@H]1c1nc2ccc3cc(-c4ccc5cc(-c6cnc([C@@H]7CCCN7C(=O)[C@H](NC(=O)C(C)(C)O)c7ccccc7)[nH]6)ccc5c4)ccc3c2[nH]1)C(C)C [Example 287]					1 to 990	1 to 990	0.006	1 to 999	1 to 999			
COC(=O)N[C@H](C(=O)N1CCC[C@H]1c1ncc(-c2ccc3cc(-c4ccc(-c5cnc([C@@H]6[C@@H]7CC[C@@H](C7)N6C(=O)[C@H](NC(=O)OC)c6ccccc6)[nH]5)cc4)ccc3c2)[nH]1)C(C)C [Example 51]	1000 to 4990	0.012	1000 to 44000	1000 to 44000	1 to 990							
COC(=O)N[C@H](C(=O)N1CCC[C@H]1c1ncc(-c2ccc3c(c2)CCc2cc(-c4cnc([C@@H]5[C@H]6CC[C@H](C6)N5C(=O)[C@@H](NC(=O)OC)C5CCOCC5)[nH]4)ccc2-3)[nH]1)C1CCOCC1 [Example 79]	1 to 990	0.231	1 to 999	1 to 999	1 to 990							
COC(=O)N[C@H](C(=O)N1CCC[C@H]1c1ncc(-c2ccc3cc(-c4ccc5c(ccc6nc([C@@H]7[C@H]8CC[C@H](C8)N7C(=O)[C@H](NC(=O)OC)c7ccccc7)[nH]c65)c4)ccc3c2)[nH]1)C1CCOCC1 [Example 327]					1 to 990		0.011			1 to 990	1 to 999	1 to 999
COC(=O)N[C@H](C(=O)N1CC(F)(F)C[C@H]1c1ncc(-c2ccc(-c3ccc4cc(-c5cnc([C@@H]6CCCN6C(=O)[C@H](NC(=O)OC)c6ccccc6)[nH]5)ccc4c3)cc2)[nH]1)C(C)C [Example 232]					1 to 990	1 to 990	0.004	1 to 999	1 to 999			
COC(=O)N[C@H](C(=O)N1[C@H]2CC[C@H](C2)[C@H]1c1nc2ccc3cc(-c4ccc5c(ccc6nc([C@@H]7CCCN7C(=O)[C@@H](NC(=O)OC)C7CCOCC7)[nH]c65)c4)ccc3c2[nH]1)C(C)C [Example 338]					1 to 990		0.127			1 to 990	1 to 999	1 to 999
COC(=O)N[C@H](C(=O)N1CCC[C@H]1c1nc2ccc3cc(-c4ccc(-c5cnc([C@@H]6[C@H]7CC[C@H](C7)N6C(=O)[C@@H](NC(=O)OC)C6CCOCC6)[nH]5)cc4)ccc3c2[nH]1)C(C)C [Example 62]	1 to 990	0.034	1 to 999	1 to 999	1 to 990							
COC(=O)N[C@H](C(=O)N1CCC[C@H]1c1nc2ccc3cc(-c4ccc5c(c4)CCc4nc([C@@H]6[C@H]7CC[C@H](C7)N6C(=O)[C@@H](NC(=O)OC)C6CCOCC6)[nH]c4-5)ccc3c2[nH]1)C(C)C [Example 89]	1 to 990	0.064	1 to 999	1 to 999	1 to 990							
COC(=O)N[C@H](C(=O)N1CCC[C@H]1c1nc2c([nH]1)-c1ccc(-c3ccc4cc(-c5cnc([C@@H]6CCCN6C(=O)[C@H](NC(=O)OC(C)(C)C)c6ccccc6)[nH]5)ccc4c3)cc1CC2)C(C)C [Example 242]					1 to 990	1 to 990	0.008	1 to 999	1 to 999			
COC(=O)N[C@H](C(=O)N1[C@@H]2CC[C@@H](C2)[C@H]1c1nc2ccc(-c3ccc4c(c3)C(F)(F)c3cc(-c5cnc([C@@H]6CCCN6C(=O)[C@H](NC(=O)OC)c6ccccc6)[nH]5)ccc3-4)cc2[nH]1)C1CCOCC1 [Example 57]	1 to 990	0.009	1 to 999	1 to 999	1 to 990							
